Assays:
p-p38 MAPK [1] = biological target: p-p38 MAPK (Homo sapiens (Human), UniProt Q16539); assay: p38 MAPK protein inhibitory ability in brain-derived cells (p-p38 immunoblot, SH-SY5Y); assay type: cell-based
Procedure: Evaluation of p38 MAPK protein inhibitory ability in brain-derived cells
In order to identify inhibition of p-p38 MAPK in brain cells, the inhibition of p38 MAPK was identified by inducing inflammation after treating each compound to SH-SYSY cells obtained by converting human neurons into cancerous cells. In short, SH-SY5Y cells were cultured in Minimum essential medium/Eagle's balanced salts supplemented with 10% fetal bovine serum and penicillin/streptomycin (100 U/ml). SH-SY5Y cells were treated with 1 μM of Compounds 4 and 6 according to the present disclosure in a culture dish respectively and cultured for 24 hours in a CO2 incubator, and then treated with 1000 ng/ml of LPS, followed by additional culture for 6 hours in a CO2 incubator.
(§1) After cell culture was terminated according to the experimental conditions, cells were washed with cold phosphate buffered saline (PBS). The cells were then collected and centrifuged at 1200 rpm for 3 minutes. The cells in the sediment were lysed with 2X sample buffer (1M Tris-HCl pH 6.8, 50% glycerol, 10% SDS, 2-mercaptoethanol, 1% bromophenol blue) and boiled at 100° C. for 10 minutes. The prepared protein samples were subjected to sodium dodecyl sulfate poly acrylamide gel electrophoresis and transferred to PVDF membrane (Millipore). For a specific binding reaction between the protein in the PVDF membrane and antibody, blocking was performed in a 5% bovine serum albumin (BSA, RMbio) solution. Subsequently, the BSA solution was discarded, and the membrane was washed with PBS-T (0.5% Tween 20 in PBS). The binding reaction of the protein in the membrane and antibody was performed overnight at 4° C. and washed again with PBS-T. Finally, a secondary antibody (Cell signaling Technology) conjugated with horse radish peroxidase (HRP) was diluted in PBS-T and reacted at room temperature for 2 hours. Luminata Forte HRP substrate (Millipore) was used to determine the amount of protein in the membrane, the results of which are shown in Table 8 below.

p-p38 MAPK [2] = biological target: p-p38 MAPK (Mus musculus (Mouse), UniProt P47811); assay: p38 MAPK protein inhibitory ability in normal brain cells (p-p38 immunoblot, primary neurons); assay type: cell-based, ICR mice
Text: Evaluation of p38 MAPK protein inhibitory ability in normal brain cells
In order to identify inhibition of p-p38 MAPK in normal cells rather than cancer cells, the inhibition of p38 MAPK was identified by inducing inflammation after treating neuron cells obtained from cerebrum of ICR mice with each compound. In short, neurons were collected from the cerebrum of the embryos of ICR mice 17-18 days after gestation and cultured for 7 days in a neurobasal medium supplemented with 2% B27 supplements, 2 mM glutamine, and penicillin/streptomycin (100 U/ml). Primary neurons were treated with 1 μM of Compounds 4 and 6 according to the present disclosure in a culture dish respectively and cultured for 24 hours in a CO2 incubator, and then treated with 1000 ng/ml of LPS, followed by additional culture for 6 hours in a CO2 incubator.
as §1, with “After the” for “After”, “conditions, washing was performed” for “conditions, cells were washed”, “reaction between” for “reaction of”, “Table 9” for “Table 8”

IL-1β mRNA = assay: Cytokine mRNA expression inhibitory ability, IL-1β, LPS-treated BV2 cells; assay type: cell-based; details: 1 μM compound 24 hours, then 1000 ng/ml LPS 24 hours
Procedure: (§2) Evaluation of cytokine mRNA expression inhibitory ability by inflammatory response
(§3) In order to identify inhibition of p-p38 MAPK, the inhibition of p38 MAPK was identified by treating each compound to BV2 cells obtained by converting microglia that induces inflammation according to p-p38 MAPK activity in the brain into cancerous cells. Briefly, BV2 cells were cultured in Dulbecco's modified Eagle Medium supplemented with 10% fetal bovine serum and penicillin/streptomycin (100 U/ml). BV2 cells were treated with 1 μM of Compounds 4 to 6 according to the present disclosure in a culture dish respectively and cultured for 24 hours in a CO2 incubator, and then treated with 1000 ng/ml of LPS, followed by additional culture for 24 hours in a CO2 incubator.
(§4) After the cell culture was completed according to the experimental conditions, washing was performed with cold phosphate buffered saline (PBS). The cells were then collected and centrifuged at 1200 rpm for 3 minutes. RNA was extracted according to the method provided in the Hybrid-R total RNA purification kit (GeneAllR), 305-101). After measuring the concentration and purity of RNA using Nanodrop, cDNA was synthesized according to the method provided in TOPscript RT DryMIX (Enzynomics, RT200). […]

TNFα mRNA = assay: Cytokine mRNA expression inhibitory ability, TNFα, LPS-treated BV2 cells; assay type: cell-based; details: 1 μM compound 24 hours, then 1000 ng/ml LPS 24 hours
Procedure: as §2, §3, §4

IL-6 mRNA = assay: Cytokine mRNA expression inhibitory ability, IL-6, LPS-treated BV2 cells; assay type: cell-based; details: 1 μM compound 24 hours, then 1000 ng/ml LPS 24 hours
Procedure: as §2, §3, §4

Chain of p-p38 MAPK (Homo sapiens (Human), UniProt Q16539) (Q16539 whole entry): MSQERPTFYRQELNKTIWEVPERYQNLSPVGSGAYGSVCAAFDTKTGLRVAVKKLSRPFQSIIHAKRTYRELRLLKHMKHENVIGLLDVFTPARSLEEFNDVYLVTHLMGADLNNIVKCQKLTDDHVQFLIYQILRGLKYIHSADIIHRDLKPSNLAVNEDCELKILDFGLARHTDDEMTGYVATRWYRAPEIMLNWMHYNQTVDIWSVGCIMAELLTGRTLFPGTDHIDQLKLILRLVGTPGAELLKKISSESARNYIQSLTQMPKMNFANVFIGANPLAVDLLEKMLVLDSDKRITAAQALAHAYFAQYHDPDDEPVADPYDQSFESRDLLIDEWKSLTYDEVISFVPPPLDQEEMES
Chain of p-p38 MAPK (Mus musculus (Mouse), UniProt P47811) (P47811 whole entry): as the sequence (Q16539 whole entry) above, with L48H, T263A counted along it

SMILES: Cc1c(F)cc(C(=O)NC2CC2)cc1-c1ccc(C(=O)c2cn(CC(O)CO)c3ccccc23)cn1 (stereo not shown) [Compound 6, N-cyclopropyl-3-(5-(1-(2,3-dihydroxypropyl)-1H-indole-3-carbonyl)pyridin-2-yl)-5-fluoro-4-methylbenzamide]
- p38 phosphorylation in cells derived from human (result in words) (p-p38 MAPK [1]; 1 μM): effectively inhibited p38 phosphorylation
- inhibition at 1 µM (p-p38 MAPK [1]; 1 μM compound 24 hours, then 1000 ng/ml LPS 6 hours): 22.8%
- p38 phosphorylation due to inflammation in normal cells (result in words) (p-p38 MAPK [2]; primary mouse neurons, 1 μM): effectively inhibited p38 phosphorylation
- inhibition at 1 µM (p-p38 MAPK [2]; primary neurons from cerebrum of ICR mouse embryos, 1 μM compound 24 hours, then 1000 ng/ml LPS 6 hours): 60.7%
- IL-1β mRNA inhibition (IL-1β mRNA): 12.6%
- TNFα mRNA inhibition (TNFα mRNA): 15.7%
- IL-6 mRNA inhibition (IL-6 mRNA): 14.4%
